Earlier results in patent US20260373126A1, “COMPOSITIONS AND METHODS OF TREATING CANCER” (Board of Supervisors of Louisiana State University and …, priority 2022, published 2026).

Test system: mitochondrial respiration
Settings: reference 2

## CC(C)OC(=O)C(C)(C)Oc1ccc(C(=O)c2ccc(Cl)cc2)cc1 [FF, Fenofibrate]
  mitochondrial respiration: blocked mitochondrial respiration
